According to patent US10167270B2, “Substituted quinazoline compounds and uses thereof for modulating glucocerebrosidase activity” (Northwestern University, priority 2015, dated 2019):

Target: wild-type GCase (Homo sapiens (Human), UniProt P04062)
Assay: GCase enzyme activity assay (4MU-β-Glc, no taurocholate)
Format: biochemical
Settings: not given
Experimental: In previous studies, high concentrations of taurocholate (4-10 mM) were used to improve the signal in GCase enzyme activity assays^16,27,28. […] Here we describe our modifications of the substituents on the quinazoline ring.
4-Methylumbelliferyl β-D-glucopyranoside (4MU-β-Glc), 4-methylumbelliferyl α-D-glucopyranoside,4-methylumbelliferyl α-D-galactopyranoside, and buffer components were purchased from Sigma-Aldrich (St. Louis, Mo.). The recombinant wild-type GCase enzyme velaglucerase alfa (Vpriv®, Shire Human Genetic Therapies, Inc.), acid α-glucosidase enzyme alglucosidase alfa (Lumizyme®, Genzyme Corporation), α-galactosidase A enzyme agalsidase beta (Fabrazyme®, Genzyme Corporation) were used in activity assays. […] A solution of 1 M sodium hydroxide and 1 M glycine (pH 10) was used as the stop solution for all three enzyme activity assays.
The compounds in DMSO solution (0.5 μL/well) were transferred to a black 96-well plate (the final titration started from 100 μM, a 12 or 24-point 2-fold dilution series). […] After 5 min of incubation at room temperature, the enzyme reaction was initiated by the addition of blue substrate (4MU-13-Glc) (33 μL/well). The final concentration of the blue substrate was 1.5 mM. The blue substrate reaction was terminated by the addition of 33 μL/well stop solution (1 M NaOH and 1 M glycine mixture, pH 10) after 30 min of incubation at 37° C. […] The selected compounds were further assayed under pH 5.0 and pH 7.0 to evaluate their selectivity under various pH conditions.

wild-type GCase, sequence (P04062 40-536): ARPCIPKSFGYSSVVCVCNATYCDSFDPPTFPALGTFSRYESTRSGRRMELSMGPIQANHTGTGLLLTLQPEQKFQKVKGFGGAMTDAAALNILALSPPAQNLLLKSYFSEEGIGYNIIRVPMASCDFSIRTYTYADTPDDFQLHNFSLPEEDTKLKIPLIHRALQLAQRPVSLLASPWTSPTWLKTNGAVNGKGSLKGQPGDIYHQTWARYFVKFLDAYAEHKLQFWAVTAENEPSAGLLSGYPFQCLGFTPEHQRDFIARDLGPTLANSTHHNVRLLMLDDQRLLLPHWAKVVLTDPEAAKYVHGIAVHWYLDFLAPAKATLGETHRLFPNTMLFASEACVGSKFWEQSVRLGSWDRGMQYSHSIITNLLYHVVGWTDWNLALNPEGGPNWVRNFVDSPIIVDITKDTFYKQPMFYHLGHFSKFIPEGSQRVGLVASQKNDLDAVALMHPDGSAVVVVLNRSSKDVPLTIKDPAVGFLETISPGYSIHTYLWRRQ

SMILES | GCase inhibitory activity in words
c1cncc(-c2nc(NC3CCc4ccccc43)c3ccccc3n2)c1 (stereo not shown) [Compound 9e] | low micromolar range
c1cncc(-c2nc(NC3CCCc4ccccc43)c3ccccc3n2)c1 (stereo not shown) [Compound 9d] | low micromolar range

Same assay, conditions: Table 1, pH 5.9, mean ± SD

IC50 | SMILES
Inactive | CN(C)C1CCC(Nc2nc(-c3cccnc3)nc3ccccc23)CC1 (stereo not shown) [Compound 6g]

Same assay, conditions: Table 1, pH 5.9, mean ± SD; read-out: IC50

IC50 [nM] | SMILES
56 ± 5 | CC1CCC(Nc2nc(-c3cccnc3)nc3ccccc23)CC1 (single isomer, unassigned) [Compound 6a]
36100 ± 8720 | c1ccc(CN2CCC(Nc3nc(-c4cccnc4)nc4ccccc34)CC2)cc1 [Compound 6k]
33200 ± 9710 | CC(C)N1CCC(Nc2nc(-c3cccnc3)nc3ccccc23)CC1 [Compound 6j]
234 ± 17 | FC1(F)CCC(Nc2nc(-c3cccnc3)nc3ccccc23)CC1 [Compound 6f]
20 ± 2 | CC1CCC(Nc2nc(-c3cccnc3)nc3ccccc23)CC1 (single isomer, unassigned) [Compound 6c]
891 ± 23 | c1cncc(-c2nc(NC3CCCOC3)c3ccccc3n2)c1 (stereo not shown) [Compound 6h]
431 ± 42 | CC1(C)CCC(Nc2nc(-c3cccnc3)nc3ccccc23)CC1 [Compound 6e]
126 ± 7 | CCC1CCC(Nc2nc(-c3cccnc3)nc3ccccc23)CC1 (stereo not shown) [Compound 6b]

SMILES | IC50 [nM]
COC1CCC(Nc2nc(-c3cccnc3)nc3ccccc23)CC1 (stereo not shown) [Compound 6d] | 251 ± 18

Same assay, conditions: Table 2, pH 5.9, mean ± SD; read-out: IC50

IC50 [nM] | SMILES
857 ± 33 | c1cncc(-c2nc(NCCC3CCCCC3)c3ccccc3n2)c1 [Compound 7i]
926 ± 80 | c1cncc(-c2nc(NC34CC5CC(CC(C5)C3)C4)c3ccccc3n2)c1 [Compound 7f]
405 ± 40 | c1cncc(-c2nc(NCC3CCCCC3)c3ccccc3n2)c1 [Compound 7h]
282 ± 43 | c1cncc(-c2nc(NC3CC4CCC3C4)c3ccccc3n2)c1 (stereo not shown) [Compound 7g]
2840 ± 340 | c1cncc(-c2nc(NC3CCC3)c3ccccc3n2)c1 [Compound 7d]
27 ± 2 | c1cncc(-c2nc(NC3CCCCCCC3)c3ccccc3n2)c1 [Compound 7a]
720 ± 50 | c1cncc(-c2nc(NC3CCCC3)c3ccccc3n2)c1 [Compound 7c]
42 ± 3 | c1cncc(-c2nc(NC3CCCCCC3)c3ccccc3n2)c1 [Compound 7b]
28100 ± 3210 | c1cncc(-c2nc(NC3CC3)c3ccccc3n2)c1 [Compound 7e]

Same assay, conditions: Table 3, pH 5.9, mean ± SD; read-out: IC50

IC50 [nM] | SMILES
97 ± 9 | c1ccc(CCNc2nc(-c3cccnc3)nc3ccccc23)cc1 [Compound 8c]
1530 ± 220 | c1ccc(CCCNc2nc(-c3cccnc3)nc3ccccc23)cc1 [Compound 8d]
1400 ± 120 | c1ccc(CCNc2nc(-c3cccnc3)nc3ccccc23)nc1 [Compound 8f]
4290 ± 570 | c1cncc(CCNc2nc(-c3cccnc3)nc3ccccc23)c1 [Compound 8g]
1280 ± 130 | c1ccc(CCCCNc2nc(-c3cccnc3)nc3ccccc23)cc1 [Compound 8e]

SMILES | IC50 [nM]
c1ccc(CNc2nc(-c3cccnc3)nc3ccccc23)cc1 [Compound 8b] | 5770 ± 820

Same assay, conditions: Table 4, pH 5.9, mean ± SD; read-out: IC50

IC50 [nM] | SMILES
821 ± 73 | c1cncc(-c2nc(NC3CCc4ccccc43)c3ccccc3n2)c1 (stereo not shown) [Compound 9e]
8.3 ± 1 | c1cncc(-c2nc(NC3Cc4ccccc4C3)c3ccccc3n2)c1 [Compound 9c]

SMILES | IC50 [nM]
c1cncc(-c2nc(NC3CCCc4ccccc43)c3ccccc3n2)c1 (stereo not shown) [Compound 9d] | 872 ± 71

Same assay, conditions: Table 5, pH 5.9, mean ± SD; read-out: IC50

IC50 [nM] | SMILES
12.5 ± 1.7 | Cc1cncc(-c2nc(NC3Cc4ccccc4C3)c3ccccc3n2)c1 [Compound 11b, N-(2,3-dihydro-1H-inden-2-yl)-2-(5-methylpyridin-3-yl)quinazolin-4-amine]
122 ± 12 | Cc1ccncc1-c1nc(NC2Cc3ccccc3C2)c2ccccc2n1 [Compound 11a, N-(2,3-dihydro-1H-inden-2-yl)-2-(4-methylpyridin-3-yl)quinazolin-4-amine]
29.4 ± 3.6 | Cc1ccc(-c2nc(NC3Cc4ccccc4C3)c3ccccc3n2)cn1 [Compound 11c, N-(2,3-dihydro-1H-inden-2-yl)-2-(6-methylpyridin-3-yl)quinazolin-4-amine]
168 ± 18 | c1ccc2c(c1)CC(Nc1nc(-c3ccncc3)nc3ccccc13)C2 [Compound 11e, N-(2,3-dihydro-1H-inden-2-yl)-2-(pyridin-4-yl)quinazolin-4-amine]

Same assay, conditions: pH 5.0, mean ± SD; read-out: IC50 pH 5.0

IC50 [nM] | SMILES
25.9 ± 3.9 | c1cncc(-c2nc(NC3Cc4ccccc4C3)c3ccccc3n2)c1 [Compound 9c]

Same assay, conditions: pH 7.0, mean ± SD; read-out: IC50 pH 7.0

IC50 [nM] | SMILES
12.7 ± 1.4 | c1cncc(-c2nc(NC3Cc4ccccc4C3)c3ccccc3n2)c1 [Compound 9c]

Same assay, conditions: read-out: IC50

IC50 [nM] | SMILES
20 | CC1CCC(Nc2nc(-c3cccnc3)nc3ccccc23)CC1 (single isomer, unassigned) [Compound 6c]
